# Values of other authors as cited in patent US6749871B2, “Compositions for treating symptoms of urogenital/urological disorders” (Prater Herbs, L.L.C., priority 2002, dated 2004).
# Tested on: benign prostatic hyperplasia
# Conditions: three-year clinical evaluation
smiles,measurement,value
CC(C)(C)NC(=O)[C@H]1CC[C@H]2[C@@H]3CC[C@H]4NC(=O)C=C[C@]4(C)[C@H]3CC[C@]12C [Finasteride],Improvement in urinary flow rate,2.3 ml per second
same,Participants with side effects such as decreased libido and impotence,about four to five percent
same,Reduction in prostatic volume,about 27%
same,Reduction in symptom score,3.6 points
